This note sets out measurements from ChEMBL document CHEMBL1123320, “Studies in potential filaricides. 18. Synthesis of 2,2'-disubstituted 5,5'-dibenzimidazolyl ketones and related compounds as potential anthelmintics” (1986).

In assay [1] the test system is Mastomys natalensis. As to the kind of experiment: Filaricidal activity against Brugia malayi in Mastomys at a dosage of 50 mg/kg x 5 administered intraperitoneally. Format: functional. Conditions: route intraperitoneal.
In assay [2] the test system is Mastomys natalensis. As to the kind of experiment: Filaricidal activity against Dipetalonema viteae in Mastomys at a dosage of 175 mg/kg x 5 administered subcutaneous. The format is functional.
Assay [3] deals with Mastomys natalensis. As to the kind of experiment: Filaricidal activity against Brugia malayi in Mastomys at a dosage of 50 mg/kg x 5 administered intraperitoneally at a day of 21. Format: functional. To be noted: route intraperitoneal.
Assay [4] has as its system Mastomys natalensis. Briefly: Filaricidal activity against Brugia malayi in Mastomys at a dosage of 50 mg/kg x 5 administered intraperitoneally at a day of 42. The format is functional. To be noted: route intraperitoneal.
Assay [5] deals with Mastomys natalensis. As to the kind of experiment: Filaricidal activity against Brugia malayi in Mastomys at a dosage of 50 mg/kg x 5 administered intraperitoneally at a day of 63. The format is functional. To be noted: route intraperitoneal.
For assay [6], the system named is Mastomys natalensis. Briefly: Filaricidal activity against Brugia malayi in Mastomys at a dosage of 50 mg/kg x 5 administered intraperitoneally at a day of 8. The format is functional. Conditions: route intraperitoneal.
Assay [7] relates to Mastomys natalensis. Briefly: Filaricidal activity against Brugia malayi in Mastomys at a dosage of 50 mg/kg x 5 administered intraperitoneally at a day of 91. The format is functional. To be noted: route intraperitoneal.
Assay [8] deals with Mastomys natalensis. As to the kind of experiment: Filaricidal activity against Dipetalonema viteae in Mastomys at a dosage of 175 mg/kg x 5 administered subcutaneous at a day of 21. Format: functional.
Assay [9] deals with Mastomys natalensis. As to the kind of experiment: Filaricidal activity against Dipetalonema viteae in Mastomys at a dosage of 175 mg/kg x 5 administered subcutaneous at a day of 42. The format is functional.
The subject of assay [10] is Mastomys natalensis. As to the kind of experiment: Filaricidal activity against Dipetalonema viteae in Mastomys at a dosage of 175 mg/kg x 5 administered subcutaneous at a day of 8. Format: functional.
Assay [11] deals with Rattus norvegicus. As to the kind of experiment: Filaricidal activity against Litomosoides carinii in cotton rats at a dosage of 6 mg/kg x 5 administered intraperitoneally. The format is functional. Conditions: route intraperitoneal.
The nature of assay [12]: Filaricidal activity against Litomosoides carinii in cotton rats at a dosage of 6 mg/kg x 5 administered intraperitoneally at a day of 8. Conditions: route intraperitoneal.

Each structure is given as a SMILES string.

As for `CCN(CC)C(=O)N1CCN(C)CC1` [DIETHYLCARBAMAZINE], the Death is 57.8% in assay [1], 0% in [2] and 0% in [11]. Besides, the Removal of microfilariae in [3] is 88.6%; in assay [4] it was 90.7%; in assay [5], 71.6%; in assay [6], 95.9%; in [7], 91.6%; in assay [8], 94.1%. For the same compound, the Removal of microfilariae in assay [9] amounted to 51.6%; in assay [10], 99.6%; in assay [12] it was 97.1%.
